The values below come from article PMC10828444, “Selective inhibition of overactive warmth-sensitive Ca^2+-permeable TRPV3 channels by antispasmodic agent flopropione for alleviation of skin inflammation” (The Journal of Biological Chemistry, 2023).

The target in one assay is T1, hTRPV3 channels (Homo sapiens, UniProt Q8NET8).
T1 construct: expressed in transfected cells; host or cells: HEK293
T1 sequence (Q8NET8 1-790): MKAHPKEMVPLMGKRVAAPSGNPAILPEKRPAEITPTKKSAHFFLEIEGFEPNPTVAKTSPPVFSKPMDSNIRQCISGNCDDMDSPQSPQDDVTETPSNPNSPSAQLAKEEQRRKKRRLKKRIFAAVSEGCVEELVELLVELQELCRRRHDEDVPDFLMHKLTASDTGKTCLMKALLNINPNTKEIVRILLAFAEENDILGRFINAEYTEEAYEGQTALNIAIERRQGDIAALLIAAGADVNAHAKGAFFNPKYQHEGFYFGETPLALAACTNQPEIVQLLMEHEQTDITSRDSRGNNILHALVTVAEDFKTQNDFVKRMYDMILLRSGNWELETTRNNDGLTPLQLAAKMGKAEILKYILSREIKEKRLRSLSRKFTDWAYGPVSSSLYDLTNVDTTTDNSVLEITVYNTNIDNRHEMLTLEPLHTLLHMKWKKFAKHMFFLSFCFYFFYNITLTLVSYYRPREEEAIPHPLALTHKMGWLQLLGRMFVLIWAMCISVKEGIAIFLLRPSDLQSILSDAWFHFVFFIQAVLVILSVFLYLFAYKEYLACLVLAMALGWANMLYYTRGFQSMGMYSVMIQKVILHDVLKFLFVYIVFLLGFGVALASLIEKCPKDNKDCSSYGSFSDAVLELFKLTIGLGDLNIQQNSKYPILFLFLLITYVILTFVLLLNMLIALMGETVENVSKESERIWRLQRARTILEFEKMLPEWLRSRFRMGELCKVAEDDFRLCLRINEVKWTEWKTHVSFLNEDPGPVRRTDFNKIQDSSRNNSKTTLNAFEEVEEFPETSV
Kind of assay: Whole-cell patch-clamp of hTRPV3 currents activated by 2-APB in HEK293 cells. The format is cell-based. The protocol:
HEK293 cells were cultured in Dulbecco’s modified Eagle’s medium (DMEM, Gibco) containing 4.5 g/L D-glucose supplemented with 10% fetal bovine serum based at 37 °C with 5% CO2. For whole-cell patch-clamp recordings, cells were grown in glass coverslips for 24 h before transient transfections with 3000 ng cDNAs of hTRPV3 (gene accession number BC104866.1), hTRPV1 (accession number NM_080704.3), mTRPV2 (accession number NM_011706.2), hTRPV4 (accession number NM_021625.5), hTRPA1 (accession number NM_007332.3) and hTRPM8 (accession number NM_024080.5) into HEK293 cells grown in a 35-mm cell culture dish using Lipofectamine 2000 (Invitrogen). Cells were used 18 ∼ 24 h after transfection. All WT or mutant hTRPV3 plasmids were validated by DNA sequencing.
Whole-cell patch clamp recordings of wild-type and mutants were carried out at room temperature using the HEKA EPC10 amplifier powered by PatchMaster software (HEKA) or MultiClamp 700B amplifier driven by Clampex 11.0.3 software. The borosilicate glass pipettes were pulled and fire-polished to 3∼6 MΩ using a DMZ universal electrode puller (Zeitz-Instruments, GmbH). Pipette solution and bath solution both contained (in mM): 130 NaCl, three HEPES, and 0.2 EDTA (pH = 7.4). Cell membrane potential was held at 0 mV, currents were recorded at a voltage ramp from −100 to +100 mV for 500-ms and analyzed at ±80 mV.

Assay [1] deals with DNFB-induced ear swelling. Kind of assay: Mouse model of ear swelling induced by DNFB. It counts as in vivo, C57BL/6J mice. To be noted: topical 0.1, 1, 10 mM on right ear for 4 days, vs DNFB alone. The protocol:
Mice were placed in a gas anesthesia device (SurgiVet) for anesthesia before the hair on the back was removed with a razor, followed by the application of an appropriate amount of hair removal cream to gently shave off the remaining hair. For generation of atopic dermatitis and ear swelling, chemical skin sensitizer DNFB (1-Fluoro-2,4-dinitrobenzene), commonly known as Sanger’s Reagent, was dissolved in a solvent (acetone/olive oil = 4/1, v/v) and 0.5% DNFB in 100 μl was applied once topically to the back and right ear for skin sensitization 1 day after acclimatization for hair removal ([43]) without any treatment for next 3 days. On the fifth and sixth days, 0.2% DNFB in 50 μl was applied topically once a day for 2 days for challenge before different concentrations of flopropione in 100 μl were topically applied once a day for four consecutive days. […]
The score contents and criteria include (1): skin erythematous/bleeding (2), skin scratches/erosion (3), skin edema (4), skin scaling or lichenoid change ([44]). Each symptom was scored from 0 to 3 (none, 0; mild, one; moderate, two; severe, (3). The final score was defined as the sum of individual scores on a scale from 0 to 12. Mouse ear thickness was measured once a day for continuous 5 days with the first measurement of ear thickness 30 min after the last application of 0.2% DNFB using vernier caliper.

By inhibition is commonly meant the percentage by which the read-out fell short of the control. One may read the IC50 as the concentration that inhibits the measured activity by half. For `CCC(=O)c1c(O)cc(O)cc1O` [flopropione], the inhibition at 100 µM at hTRPV3 channels (HEK293, flopropione 100 μmol/L, agonist 2-APB 50 μmol/L, read-out: inhibition of TRPV3 currents) is around 84%. In addition, at hTRPV3 channels (whole-cell, HEK293, 50 μM 2-APB activation, n = 5, mean ± SD, read-out: IC50 of dose-dependent inhibition of TRPV3 currents), the IC50 stood at 17.8 ± 3.5 µM. For the same compound, in assay [1], the “ear swelling (ear thickness, vernier caliper)” value is “significantly reduced ear swelling”.
